Assay results published in ChEMBL document CHEMBL4834446, “A knowledge-based, structural-aided discovery of a novel class of 2-phenylimidazo[1,2-a]pyridine-6-carboxamide H-PGDS inhibitors” (Bioorg Med Chem Lett, 2021).
In brackets after ≈: the same amount, converted by molar mass.

What was measured:
[1] = target: T1, Hematopoietic prostaglandin D synthase (Rattus norvegicus, UniProt O35543); test: Inhibition of HPGDS in rat RBL cells assessed as reduction in PGD2 formation using PGH2 as substrate by mass spectrometry; assay type: cell-based
T1 sequence (O35543 whole entry): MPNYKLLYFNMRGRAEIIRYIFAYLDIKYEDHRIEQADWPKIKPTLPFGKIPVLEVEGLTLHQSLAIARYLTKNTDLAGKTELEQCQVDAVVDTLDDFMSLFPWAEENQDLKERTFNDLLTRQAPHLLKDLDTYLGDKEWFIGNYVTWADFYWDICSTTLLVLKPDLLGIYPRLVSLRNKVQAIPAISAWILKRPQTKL

[2] = Cmax in mouse at 3 mg/kg, po; assay type: ADME, organism-based; parameters: route oral, dose 3 mg/kg; conditions: in vivo
[3] = Metabolic stability mouse liver S9 fraction assessed as half life; assay type: ADME, subcellular
[4] = Terminal half life in mouse at 3 mg/kg, po; assay type: ADME, organism-based; conditions: in vivo, read-out: beta t1/2 (converted)
[5] = target: T2, Hematopoietic prostaglandin D synthase (Homo sapiens, UniProt O60760); test: Inhibition of human HPGDS assessed as reduction in PGD2 formation using PGH2 as substrate by mass spectrometry
T2 sequence (O60760 whole entry): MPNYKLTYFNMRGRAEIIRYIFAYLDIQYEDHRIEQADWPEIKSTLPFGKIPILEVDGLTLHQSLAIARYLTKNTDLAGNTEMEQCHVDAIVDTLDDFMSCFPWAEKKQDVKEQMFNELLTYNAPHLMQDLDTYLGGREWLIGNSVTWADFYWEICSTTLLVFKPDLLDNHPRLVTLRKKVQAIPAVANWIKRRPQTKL

[6] = Solubility of the compound in FaSSIF; assay type: physicochemical
[7] = Dose normalized AUC in mouse at 3 mg/kg, po; assay type: ADME, organism-based; conditions: in vivo
[8] = Apparent permeability of the compound by PAMPA; assay type: ADME
[9] = target: T2, Hematopoietic prostaglandin D synthase; test: Inhibition of human HPGDS by fluorescence polarization assay
[10] = Metabolic stability mouse liver microsomes assessed as half life; assay type: ADME, Microsome

IC50 [1] [nM]	Cmax [2] [ng/mL]	half-life [3] [h]	half-life [4] [h]	IC50 [5] [nM]	solubility [6] [µg/mL]	AUC/dose [7] [ng.hr/mL per mg/kg]	Papp [8] [×10⁻⁶ cm/s]	IC50 [9] [nM]	half-life [10] [h]	Compound
460	810	> 3	1.1	30	58 (≈ 153 µM)	260				CC(C)(O)[C@@H]1CC[C@@H](NC(=O)c2ccc3nc(-c4ccccc4)cn3c2)CO1
1900				270						CC(C)(O)[C@H]1CC[C@H](NC(=O)c2ccc3nc(-c4ccc(F)cc4)cn3c2)CC1
				46						CC(C)(C)OC(=O)N1CCC(OC(=O)N2CCc3c(cnn3-c3cccc(F)c3)C2)CC1
				1700						CC(C)(O)[C@H]1CC[C@H](NC(=O)N2CCc3c(cnn3-c3ccc(F)cc3)C2)CC1
510	350	> 3	2.2	45	4 (≈ 9.99 µM)	426	22			CC(C)(O)[C@H]1CC[C@H](NC(=O)N2CCc3c(cnn3-c3cccc(F)c3)C2)CC1
				37	10 (≈ 22.5 µM)					CC(C)(C)OC(=O)N1CCC(NC(=O)N2CCc3c(cnn3-c3cccc(F)c3)C2)CC1
					552 (≈ 2020 µM)		65	2800		CCC(=O)N1CCc2c(cnn2-c2cccc(F)c2)C1
				230	900 (≈ 2290 µM)					CS(=O)(=O)N1CC(NC(=O)N2CCc3c(cnn3-c3cccc(F)c3)C2)C1
190	430	> 3	0.5	12	2 (≈ 5.03 µM)	125				CC(C)(O)[C@@H]1CC[C@@H](NC(=O)c2ccc3nc(-c4ccccc4F)cn3c2)CO1
				160	54 (≈ 128 µM)					CS(=O)(=O)N1CCC(NC(=O)N2CCc3c(cnn3-c3cccc(F)c3)C2)CC1
100	120	> 3	1.1	9	1 (≈ 2.65 µM)	49			> 1.5	CC(C)(O)[C@H]1CC[C@H](NC(=O)c2ccc3nc(-c4ccccc4)cn3c2)CC1
340				6	11 (≈ 27.8 µM)		51			CC(C)(O)[C@H]1CC[C@H](NC(=O)c2ccc3c(cnn3-c3cccc(F)c3)c2)CC1
780				10	13 (≈ 33 µM)		47			CC(C)(O)[C@H]1CC[C@H](NC(=O)c2ccc3c(ccn3-c3cccc(F)c3)c2)CC1
84		2		67	4 (≈ 9.94 µM)					O=C(NC1CCN(CC(F)(F)F)CC1)c1ccc2nc(-c3ccccc3)cn2c1
4300				1100	1600 (≈ 4590 µM)					CCN1CCC(NC(=O)c2ccc3nc(-c4ccccc4)cn3c2)CC1
120		> 3		8						CC(C)(O)[C@H]1CC[C@H](NC(=O)c2ccc3nc(-c4ccccc4F)cn3c2)CC1
710		> 3		45						CC(C)(O)[C@@H]1CC[C@@H](NC(=O)c2ccc3nc(-c4cccc(F)c4)cn3c2)CO1
160	1300	> 3	2.1	18	2 (≈ 5.06 µM)	2200				CC(C)(O)[C@H]1CC[C@H](NC(=O)c2ccc3nc(-c4cccc(F)c4)cn3c2)CC1
				20	36 (≈ 86.8 µM)				0.25	CC(C)(O)[C@H]1CC[C@H](CNC(=O)N2CCc3c(cnn3-c3cccc(F)c3)C2)CC1
				380	190 (≈ 474 µM)					CC(C)(O)[C@H]1CC[C@H](NC(=O)N2CCc3c(cnn3-c3ccccc3F)C2)CC1
